Like-named read-outs stand apart in the source and are kept apart here.
Experiments:
[1] = molecular target: Biotinylated KRAS G12C protein (Homo sapiens (Human), UniProt P01116, C118S/C51S/C80L/G12C); experiment: SOS-catalyzed nucleotide exchange assay (TR-FRET); format: biochemical; conditions: in vitro apparent potency; preincubation time of 60 minutes prior to addition of SOS
Procedure, shortened: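 Biotinylated KRAS G12C preloaded with Bodipy-GDP and Tb-streptavidin, then incubated with compound (10-point, 3-fold series) for 60 min at RT. Exchange started with SOS and GTP for 60 min. TR-FRET 520/495 ratio normalised to DMSO and saturating-inhibitor controls; four-parameter fit.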

[2] = tested on: phospho-ERK; experiment: Cellular phospho-ERK assay; format: cell-based; conditions: NCI-H358 cells, 2 hour incubation, ratio of p-Erk vs total Erk, read-out: IC50 (nM) pERK (Cell)
Procedure, shortened: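 NCI-H358 cells seeded overnight, then exposed to compound dose-response titrations for 2 hours at 37° C. in RPMI. Lysates assayed by AlphaLISA SureFire Ultra multiplex for p-Erk and total Erk; ratio p-Erk/total Erk used as readout, IC50 from 4-parameter logistic fit.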

IC50 [1] [nM]	IC50 ([2]; Homo sapiens, NCI-H358, 2 h) [nM]	IC50 [2] [nM]	Molecule
5.3	30	–	C=CC(=O)N1CCN(c2nc(=O)n3c4nc(c(F)cc24)-c2c(ccc(F)c2F)OCC(F)(F)CCc2ccnc(C(C)C)c2-3)C[C@H]1C [Example 66, 12,12,17,18,21-pentafluoro-2-[(3R)-3-methyl-4-(prop-2-enoyl)piperazin-1-yl]-6-(propan-2-yl)-10,11,12,13-tetrahydro-4H-1,19-(ethanediylidene) pyrido[4,3-f]pyrimido[1,6-h] [1,8,10]benzoxadiazacyclo-tridecin-4-one]
23	–	26	17,20-difluoro-2-[(2S)-2-methyl-4-(prop-2-enoyl)piperazin-1-yl]-6-(propan-2-yl)-10,11,12,13-tetrahydro-4H-1,18-ethenopyrido[4,3-e]pyrimido[1,6-g][1,7,9]benzotriazacyclododecin-4-one [Example 112]

— patent publication US20240043448A1, “Small Molecule Inhibitors of KRAS G12C Mutant” (Merck Sharp & Dohme LLC, priority 2019, published 2024)
